Source: the supplement of paper PMC11208160

test: recombinant UMI read abundance after kanamycin selection (control-corrected) (log10(CPM+1)); higher = more efficient recombination; extreme values may be limits of the assay; sequences stand for … in AGTGCAGAGAAAATCGGCCAGTTTTCTCTGCCTGCAGTCCGCATGCCGTGGGACCCCTTGGGTTCTAACCTGTTGCCTAGATTTATGCAGCGGACTGCCTTTCTCCCAAAGTGATAAACCGG…AGGTTGGTTTCACT; site = the 11-nt donor
Summary of the method: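 Reported values are log10(CPM+1) from a pooled Escherichia coli screen of donor and donor-binding-loop pairs for the IS621 bridge recombinase. Selection used IPTG (0.07 mM) plus kanamycin, against unselected plating, each in two replicates. Recombinant UMIs were amplified across the donor–target junction, sequenced, converted to CPM, averaged over replicates and scaled by control-derived factors.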
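Also: IS621 bridge recombinase in Escherichia coli cells against a fixed T5 target plasmid.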

| Sequence | recombinant UMI read abundance (log10) |
| --- | --- |
| CTACTAGCATGGACCGGTTTTCCCGGTAATCCGTATTTGAC (site CTAGTATCTGT) | 0 |
| TTTACCCCATGGACCGGTTTTCCCGGTAATCCGTATTTGCT (site TTTACCCCTAG) | 0.0114 |
| TACTGCGCATGGACCGGTTTTCCCGGTAATCCGTATTTGAC (site TACTGCGCTGT) | 1.9 |
| TTAGTCACATGGACCGGTTTTCCCGGTAATCCGTATTTGGG (site TTAGTCACTCC) | 0.0104 |
| AGTCCCACATGGACCGGTTTTCCCGGTAATCCGTATTTGGA (site AGTCCCACTTC) | 0.296 |
| GCTGGCCCATGGACCGGTTTTCCCGGTAATCCGTATTTGAT (site GCTCGCCCTAT) | 0.00439 |
| ACAGTATCATGGACCGGTTTTCCCGGTAATCCGTATTTGCA (site ACAGTATCTTT) | 2.17 |
| ATCGCCTCATGGACCGGTTTTCCCGGTAATCCGTATTTGGG (site ATCGCCTCTCC) | 0.29 |
| CGGAAGCCATGGACCGGTTTTCCCGGTAATCCGTATTTGTT (site CGGAATCCTAA) | 0 |
| TATTTCGCATGGACCGGTTTTCCCGGTAATCCGTATTTGTG (site TATTTTGCTCA) | 0.00403 |
| AGAATGACATGGACCGGTTTTCCCGGTAATCCGTATTTGCA (site AGAATGACTTG) | 2.63 |
| CTACTAACATGGACCGGTTTTCCCGGTAATCCGTATTTGGA (site ATACTAACTTC) | 0.387 |
| TTACTAACATGGACCGGTTTTCCCGGTAATCCGTATTTGGA (site TTACTAACTTC) | 0.363 |
| TGAGAGACATGGACCGGTTTTCCCGGTAATCCGTATTTGCG (site TAAGAGACTCG) | 2.07 |
| TATACACCATGGACCGGTTTTCCCGGTAATCCGTATTTGAC (site TATACACCTGT) | 0 |
| AGGGACCCATGGACCGGTTTTCCCGGTAATCCGTATTTGAA (site AGGGACCCTTT) | 0.531 |
| CAAGCGCCATGGACCGGTTTTCCCGGTAATCCGTATTTGCG (site CAAGCGCCTCC) | 0.0171 |
| CTCTACACATGGACCGGTTTTCCCGGTAATCCGTATTTGAT (site CTCTACACTAG) | 0.00358 |
| GGTACGTCATGGACCGGTTTTCCCGGTAATCCGTATTTGTC (site GGTACGTCTCA) | 0.0113 |

| Sequence | recombinant UMI read abundance (log10) |
| --- | --- |
| AGCCTAGCATGGACCGGTTTTCCCGGTAATCCGTATTTGTT (site AGCCCAGCTAA) | 0.00418 |
| TTAAGGCCATGGACCGGTTTTCCCGGTAATCCGTATTTGAC (site GTAAGGCCTGT) | 0 |
| TGTTCTCCATGGACCGGTTTTCCCGGTAATCCGTATTTGTA (site TGTTCCCCTTA) | 0.00777 |
| GTAGGCGCATGGACCGGTTTTCCCGGTAATCCGTATTTGCG (site GTAGACGCTCG) | 2.78 |
| AGGTTCCCATGGACCGGTTTTCCCGGTAATCCGTATTTGTG (site AGCTTCCCTCA) | 0.0211 |
| CTCGCAACATGGACCGGTTTTCCCGGTAATCCGTATTTGTT (site CTCGCAACTAA) | 1.96 |
| CCCATATCATGGACCGGTTTTCCCGGTAATCCGTATTTGTC (site CCCGTATCTGA) | 0 |
| GTAGTCGCATGGACCGGTTTTCCCGGTAATCCGTATTTGCG (site GTAGTCGCTGG) | 1.34 |
| GCTTGCCCATGGACCGGTTTTCCCGGTAATCCGTATTTGAT (site GCTGGCCCTAT) | 0.00346 |
| GTAGTAGCATGGACCGGTTTTCCCGGTAATCCGTATTTGCG (site GTAGTTGCTCG) | 1.32 |
| CTACTAACATGGACCGGTTTTCCCGGTAATCCGTATTTGGA (site GTACTAACTTC) | 0.0739 |
| CCTGAAGCATGGACCGGTTTTCCCGGTAATCCGTATTTGAT (site CCTCAAGCTAT) | 0 |
| AACTGTCCATGGACCGGTTTTCCCGGTAATCCGTATTTGAT (site AACTGTCCTAT) | 0.173 |
| CAGACATCATGGACCGGTTTTCCCGGTAATCCGTATTTGCT (site CCGACATCTAG) | 1.06 |
| GTTGCGGCATGGACCGGTTTTCCCGGTAATCCGTATTTGCT (site CTTGCGGCTAG) | 0.745 |
| CTGCTACCATGGACCGGTTTTCCCGGTAATCCGTATTTGCG (site CTGCTACCTAG) | 0 |
| CCGTTTACATGGACCGGTTTTCCCGGTAATCCGTATTTGCT (site CCGTTTACTAA) | 0 |
| ACATACTCATGGACCGGTTTTCCCGGTAATCCGTATTTGCA (site GCATACTCTTG) | 2.66 |
| GCAGCGGCATGGACCGGTTTTCCCGGTAATCCGTATTTGCC (site GCAGCGGCTGG) | 1.22 |

| Sequence | recombinant UMI read abundance (log10) |
| --- | --- |
| AGCCACCCATGGACCGGTTTTCCCGGTAATCCGTATTTGTT (site CGCCACCCTAA) | 0.026 |
| TGAGTCGCATGGACCGGTTTTCCCGGTAATCCGTATTTGTG (site TGAGTCGCTCA) | 0.474 |
| GGTAAGTCATGGACCGGTTTTCCCGGTAATCCGTATTTGTT (site GGTAAGTCTAA) | 1.98 |
| CCGTATACATGGACCGGTTTTCCCGGTAATCCGTATTTGAT (site CCGTATACTAT) | 0.449 |
| TGGAACCCATGGACCGGTTTTCCCGGTAATCCGTATTTGTT (site CGGAATCCTAA) | 0 |
| GATCCCGCATGGACCGGTTTTCCCGGTAATCCGTATTTGTC (site GATCCCGCTGA) | 0.846 |
| ACAGTATCATGGACCGGTTTTCCCGGTAATCCGTATTTGCA (site ACAGAATCTTC) | 0.287 |
| TATGGGCCATGGACCGGTTTTCCCGGTAATCCGTATTTGCT (site TATGGGCCTAG) | 0 |
| CTCCCGACATGGACCGGTTTTCCCGGTAATCCGTATTTGAG (site CTCCCTACTCT) | 0.0167 |
| GTTTGAGCATGGACCGGTTTTCCCGGTAATCCGTATTTGCA (site GTTTGAGCTTG) | 2.07 |
| ACCTAGACATGGACCGGTTTTCCCGGTAATCCGTATTTGGG (site ACCTAAACTCC) | 0 |
| GAAGATTCATGGACCGGTTTTCCCGGTAATCCGTATTTGTT (site GAACATTCTAA) | 0 |
| TTAGTCGCATGGACCGGTTTTCCCGGTAATCCGTATTTGCG (site TTAGTCGCTCG) | 0.224 |
| CCCGGTGCATGGACCGGTTTTCCCGGTAATCCGTATTTGCA (site CCCGGTACTTG) | 0 |
| CAAGTCACATGGACCGGTTTTCCCGGTAATCCGTATTTGGG (site CTAGTCACTCC) | 0.0139 |
| CATAAAGCATGGACCGGTTTTCCCGGTAATCCGTATTTGAT (site CATAAAGCTAT) | 2.1 |
| GGCCGATCATGGACCGGTTTTCCCGGTAATCCGTATTTGCG (site GGCCGATCTCG) | 1.88 |
| GTATGCACATGGACCGGTTTTCCCGGTAATCCGTATTTGGA (site GTATGCACTTC) | 0.931 |
| AAAGTCACATGGACCGGTTTTCCCGGTAATCCGTATTTGGG (site AAAGTCACTCC) | 0.0214 |
